Results from ChEMBL document CHEMBL1201862, “PubChem BioAssay data set” (2004).
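The compound was tested at five concentrations on cells cultured in 96-well plates, with a 48-hour exposure period. Abbreviation: GI50, concentration required for 50% inhibition of growth.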 Calls of active or inactive are those of the source. No stated cut-off is given here; in the data, active = GI50 up to about 1.1 µM and inactive = higher.

Legend:
Assay in all cases: NCI anticancer screen, dose series, 48 h
SN12C = system: SN12C
HOP-92 = system: HOP-92
OVCAR-5 = system: OVCAR-5
SW-620 = system: SW-620
U-251 = system: U-251
EKVX = system: EKVX
SK-MEL-5 = system: SK-MEL-5
TK-10 = system: TK-10
UACC-257 = system: UACC-257
K562 = system: K562
CCRF-CEM = system: CCRF-CEM
UACC-62 = system: UACC-62
ACHN = system: ACHN
RXF 393 = system: RXF 393
HT-29 = system: HT-29

| Structure (SMILES) | GI50 (SN12C) | GI50 (HOP-92) | GI50 (OVCAR-5) | GI50 (SW-620) | GI50 (U-251) | GI50 (EKVX) | GI50 (SK-MEL-5) | GI50 (TK-10) | GI50 (UACC-257) | GI50 (K562) | GI50 (CCRF-CEM) | GI50 (UACC-62) | GI50 (ACHN) | GI50 (RXF 393) | GI50 (HT-29) |
| --- | --- | --- | --- | --- | --- | --- | --- | --- | --- | --- | --- | --- | --- | --- | --- |
| CN(C)NC1=C([N+](=O)[O-])C=NN(c2ccccc2)C1 | 1.76 µM (inactive) | 2.02 µM (inactive) | 1.67 µM (inactive) | 1.89 µM (inactive) | 1.76 µM (inactive) | 1.75 µM (inactive) | 2.56 µM (inactive) | 3.19 µM (inactive) | 1.74 µM (inactive) | 2.44 µM (inactive) | 1.79 µM (inactive) | 1.71 µM (inactive) | 1.73 µM (inactive) | 1.93 µM (inactive) | 1.95 µM (inactive) |
| COc1ccc(N(C)Sc2ccccc2)cc1 | 21.1 µM (inactive) | 79.8 µM (inactive) | > 100 µM (inactive) | 43.7 µM (inactive) | 32.8 µM (inactive) |  | 47.4 µM (inactive) | > 100 µM (inactive) | 37 µM (inactive) | 41.4 µM (inactive) | 6.38 µM (inactive) | 34.7 µM (inactive) |  | 19.9 µM (inactive) |  |
| C=C=C(C(=O)OC)[S+]([O-])c1ccc([N+](=O)[O-])cc1[N+](=O)[O-] (configuration not stated) | 22.4 µM (inactive) | 18.6 µM (inactive) | > 82.4 µM (inactive) | 14.5 µM (inactive) | 38.1 µM (inactive) | > 100 µM (inactive) | 36.2 µM (inactive) | 46 µM (inactive) | 34.9 µM (inactive) | 20 µM (inactive) | 12 µM (inactive) | 28.2 µM (inactive) | 37.2 µM (inactive) | 30.7 µM (inactive) | 26.1 µM (inactive) |
| COCOCCCCCO[Si](C)(C)C(C)(C)C | 17.2 µM (inactive) | 17.7 µM (inactive) | 16.9 µM (inactive) | 17.3 µM (inactive) | 15.8 µM (inactive) | 20 µM (inactive) | 16.5 µM (inactive) | 33 µM (inactive) | 16.5 µM (inactive) | 26.4 µM (inactive) | 16.7 µM (inactive) | 25.3 µM (inactive) | 14.4 µM (inactive) | 16.6 µM (inactive) | 14.4 µM (inactive) |
| CN(C)CCNC(=O)c1cccc2c1nc(-c1ccccn1)c1ccccc12 | 23.9 µM (inactive) | 18.6 µM (inactive) | 14.8 µM (inactive) | 11.2 µM (inactive) | 16.3 µM (inactive) | 22.7 µM (inactive) | 15.2 µM (inactive) | > 10 µM (inactive) | 16.7 µM (inactive) | 16.9 µM (inactive) | 13.5 µM (inactive) | 17.1 µM (inactive) | 15.5 µM (inactive) | 14.6 µM (inactive) | 16.3 µM (inactive) |
| S=C1OC2C3C4CC5C3C(O1)C1C5C4C21 (configuration not stated) | > 100 µM (inactive) | > 100 µM (inactive) | > 100 µM (inactive) | > 100 µM (inactive) | > 100 µM (inactive) | > 100 µM (inactive) | > 100 µM (inactive) | > 100 µM (inactive) | > 100 µM (inactive) |  | > 100 µM (inactive) | > 100 µM (inactive) | > 100 µM (inactive) | > 100 µM (inactive) | > 100 µM (inactive) |
| CCn1c(CSc2nc(-c3ccccc3)c(-c3ccccc3)[nH]2)n[nH]c1=S | > 100 µM (inactive) | > 100 µM (inactive) | > 100 µM (inactive) |  | > 100 µM (inactive) | > 100 µM (inactive) | > 100 µM (inactive) | > 100 µM (inactive) | > 100 µM (inactive) |  | > 100 µM (inactive) |  | > 100 µM (inactive) |  | > 100 µM (inactive) |
| COc1ccc(OC)c(NC(=O)CCC/C(CC(=O)c2ccc(O)c(OC)c2)=N\NC(=O)C[N+](C)(C)C)c1 | > 100 µM (inactive) | > 100 µM (inactive) | > 100 µM (inactive) | > 100 µM (inactive) | > 100 µM (inactive) | > 100 µM (inactive) | > 100 µM (inactive) | > 100 µM (inactive) | > 100 µM (inactive) | > 100 µM (inactive) | > 100 µM (inactive) | > 100 µM (inactive) | > 100 µM (inactive) |  | > 100 µM (inactive) |
| COc1ccc(C(=O)NCCC2=CCCCC2)cc1 | > 100 µM (inactive) | 78.5 µM (inactive) | > 100 µM (inactive) | > 100 µM (inactive) | > 100 µM (inactive) | > 100 µM (inactive) | > 100 µM (inactive) | > 100 µM (inactive) | > 100 µM (inactive) | > 100 µM (inactive) | > 100 µM (inactive) | > 100 µM (inactive) | > 100 µM (inactive) | > 100 µM (inactive) | > 100 µM (inactive) |
| [O-][S+]1CSCS1 (configuration not stated) | > 100 µM (inactive) | > 100 µM (inactive) | > 100 µM (inactive) | > 100 µM (inactive) | > 100 µM (inactive) | > 100 µM (inactive) | > 100 µM (inactive) | > 100 µM (inactive) | > 100 µM (inactive) | > 100 µM (inactive) | > 100 µM (inactive) | > 100 µM (inactive) | > 100 µM (inactive) | > 100 µM (inactive) | > 100 µM (inactive) |
| O=C(c1ccc(Cl)cc1)c1ccc(OCCCOc2ccc(C(=O)c3ccc(Cl)cc3)cc2)cc1 | > 100 µM (inactive) | 78.9 µM (inactive) | > 100 µM (inactive) | > 100 µM (inactive) | > 100 µM (inactive) | > 100 µM (inactive) | > 100 µM (inactive) | > 100 µM (inactive) | > 100 µM (inactive) | > 100 µM (inactive) | > 100 µM (inactive) | > 100 µM (inactive) | > 100 µM (inactive) | 88.3 µM (inactive) | > 100 µM (inactive) |
| N#Cc1c(-c2ccco2)cc(-c2ccc(N)cc2)[nH]c1=O | > 100 µM (inactive) | > 100 µM (inactive) | > 100 µM (inactive) | > 100 µM (inactive) | > 100 µM (inactive) | > 100 µM (inactive) | > 100 µM (inactive) | > 100 µM (inactive) | > 100 µM (inactive) | > 100 µM (inactive) | > 100 µM (inactive) | > 100 µM (inactive) | > 100 µM (inactive) | > 100 µM (inactive) | > 100 µM (inactive) |
| CC12N=NN(c3ccc([N+](=O)[O-])cc3)C1(O)c1ccccc1C2=O (configuration not stated) | > 100 µM (inactive) |  |  | > 100 µM (inactive) | > 100 µM (inactive) | > 100 µM (inactive) | > 100 µM (inactive) | > 100 µM (inactive) | > 100 µM (inactive) |  |  | > 100 µM (inactive) | 48.5 µM (inactive) | > 100 µM (inactive) | > 100 µM (inactive) |
| Cc1cc(NS(=O)(=O)c2ccc(Nc3c4ccccc4nc4c(C(=O)Nc5ccc(S(=O)(=O)N=C(N)N)cc5)ccc(Cl)c34)cc2)no1 | 31.2 µM (inactive) |  | > 100 µM (inactive) |  | 28.6 µM (inactive) | 65 µM (inactive) | > 100 µM (inactive) | > 100 µM (inactive) | > 100 µM (inactive) | 22.1 µM (inactive) |  | 25.1 µM (inactive) | 60.5 µM (inactive) | 29 µM (inactive) | 49.7 µM (inactive) |
| COc1ccc(C2=C[C@]3(O)CCCN3C[C@@H]2c2ccc(OC)c(OC)c2)cc1 | < 0.0001 µM (active) | < 0.0001 µM (active) | < 0.0001 µM (active) | < 0.0001 µM (active) | < 0.0001 µM (active) | < 0.0001 µM (active) | < 0.0001 µM (active) | < 0.0001 µM (active) | < 0.0001 µM (active) | < 0.0001 µM (active) | < 0.0001 µM (active) | < 0.0001 µM (active) | < 0.0001 µM (active) | > 0.01 µM (active) | < 0.0001 µM (active) |
| COc1ccc(O)c(C(=O)CCC(=O)O)c1 | > 100 µM (inactive) | > 100 µM (inactive) | > 100 µM (inactive) | > 100 µM (inactive) | > 100 µM (inactive) | > 100 µM (inactive) | > 100 µM (inactive) | > 100 µM (inactive) | 15.6 µM (inactive) | > 100 µM (inactive) | > 100 µM (inactive) | > 100 µM (inactive) | > 100 µM (inactive) | > 100 µM (inactive) | > 100 µM (inactive) |
| CC1(Cl)CC2OC3(Br)C=CC(C)(O)C2(CC1Br)C3(C)C (configuration not stated) | > 100 µM (inactive) | 50.9 µM (inactive) | > 100 µM (inactive) | > 100 µM (inactive) | > 100 µM (inactive) | > 100 µM (inactive) | > 100 µM (inactive) | > 100 µM (inactive) | 97.5 µM (inactive) | > 100 µM (inactive) | > 100 µM (inactive) | > 100 µM (inactive) | > 100 µM (inactive) | > 100 µM (inactive) | > 100 µM (inactive) |
| CC1CC(C)C(=O)C(C(=O)CC2CC(=O)NC2=O)C1 (configuration not stated) | > 100 µM (inactive) | > 100 µM (inactive) | > 100 µM (inactive) | > 100 µM (inactive) | > 100 µM (inactive) | > 100 µM (inactive) |  | > 100 µM (inactive) | > 100 µM (inactive) | > 100 µM (inactive) | > 100 µM (inactive) | > 100 µM (inactive) | > 100 µM (inactive) | > 100 µM (inactive) | > 100 µM (inactive) |
| O=C(Nc1ccc(Br)cc1)C(=O)C(C(=O)c1ccccc1F)C1OC(=O)c2ccccc21 (configuration not stated) | 27.9 µM (inactive) | 27.7 µM (inactive) | 48 µM (inactive) | 31.9 µM (inactive) | 19.3 µM (inactive) | 81.1 µM (inactive) | 27.2 µM (inactive) | 50.5 µM (inactive) | 24.8 µM (inactive) | 31 µM (inactive) | 18.6 µM (inactive) | 14 µM (inactive) | 38.5 µM (inactive) |  | 39.6 µM (inactive) |
